The assay concerns CEM cells HIV-1 protection, formazan growth assay. Nature of the assay: NCI AIDS Antiviral Assay. The note with it: for pIC50: measured here: growth of uninfected CEM cells. In a few lines:
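Soluble formazan readout of cell growth; CEM cells ± HIV-1; 5 drug concs. ≥50% protection → retest; ≥50% again = moderately active; reproducible 100% = confirmed active.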

pEC50, pIC50: −log10 of the molar value. Several values for one entry are separate records, joined by “and”; a condition that tells them apart may be missing. Identical values can stand only once. Activity calls are given as the source filed them.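 The calls were made as follows: active = compounds giving half or more protection of infected cells from virus-caused growth loss, again on retest; inactive = the rest.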 A value given as a limit tells only on which side of the number the result lay.

Data on 30 compounds can be found in PubChem BioAssay AID179 (DTP/NCI, 2004).

Regarding `OC(c1ccco1)C(F)(F)c1nc2ccccc2o1` (stereo not drawn), the pEC50 is less than 3.70 and the pIC50 is less than 3.70. Regarding `O=C1OCCN1N1C(=O)CC2(CCCCC2)C1=O`, the pEC50 was less than 3.70 and the pIC50 was less than 3.70. Take `C=C(C)[C@@H]1CC[C@]2(COC(=O)CC3(CC(=O)O)CCCC3)CC[C@]3(C)[C@H](CC[C@@H]4[C@@]5(C)CC[C@H](OC(=O)CC6(CC(=O)O)CCCC6)C(C)(C)[C@@H]5CC[C@]43C)[C@@H]12`: the pEC50 is less than 3.70 and the pIC50 was 5.23. Take `COc1ccc2c(c1)OC1(OCCO1)[C@@H]1C2CC[C@@]2(C)C1CCC21OCCO1` (stereo partly drawn): the pEC50 is less than 4.73 and the pIC50 is less than 4.73. Regarding `CCOC(=O)C1=CC(C)(C(=O)OCC)Nc2c(nc(SC)n(C)c2=O)N1` (stereo not drawn), the pEC50 is less than 3.70 and the pIC50 is 3.84. The like results for `CN1c2c(nc(N)[nH]c2=O)NCC1CCNc1ccc(C(=O)NC(CCC(=O)O)C(=O)O)cc1` (stereo not drawn) were, in that order, less than 3.62 and 3.69.

On to `O=C(O)CCc1c2ccc(=O)c(O)c-2oc2c(O)c(O)ccc12`, for which the pEC50 is 4.07 and the pIC50 was 3.99. Turning to `CCOC(=O)n1c2ccccc2c2c(O)c(OC)c3c(c21)C(=O)NC3=O`, the pEC50 is less than 3.70 and the pIC50 was 4.52. `C=C1C(=O)OC2CC(C)C(/C=C/C(C)=O)=CCC12` (stereo not drawn): the pEC50 was less than 3.44 and the pIC50 was 4.25.

As for `COc1ccc(-c2nc3ccccc3c(=S)n2OC(C)=O)cc1`, the pEC50 was less than 3.70 and the pIC50 was 5.77. `CN(C)/C=C/c1ccncc1`: the pEC50 is less than 3.70 and the pIC50 is 3.84.

For the compound `C=CCCCCC1CCC2CCC(CCCC)N12` (stereo not drawn), the pEC50 is less than 3.28 and the pIC50 was less than 3.28. Regarding `COC1OC(COC(=O)NCCCCC(=O)C(F)(F)C(F)(F)C(F)(F)C(F)(F)C(F)(F)C(F)(F)C(F)(F)F)C(O)C(O)C1O` (stereo not drawn), the pEC50 is less than 3.70; the pIC50 is 5.53 and 5.22. In the case of `COc1cc2c(cc1OC)CN1CCCc3cc(OC)c(OC)cc3C1C2` (stereo not drawn), the pEC50 was less than 3.70 and the pIC50 is 4.49. For `BrC/C=C/C[P+](c1ccccc1)(c1ccccc1)c1ccccc1`, the pEC50 is less than 5.28 and the pIC50 is 6.22. As for `CCC1(O)C(=O)OCc2c1cc1n(c2=O)Cc2cc3ccc(CO)cc3nc2-1` (stereo not drawn), the pEC50 is less than 5.00 and the pIC50 is 5.82. With `O=C1CC2C=CC(O)C(C1)C2` (stereo not drawn), the pEC50 is less than 3.70 and the pIC50 is less than 3.70. With `CC(=O)OC1CC2CCC1(C)C2(C)C` (stereo not drawn), the pEC50 was less than 3.70 and the negative-log IC50 (pIC50) was less than 3.70. With `O=c1oc2c/c(=C\c3ccccn3)c(=O)c3cccc1c3-2`, the pEC50 is less than 3.70 and the pIC50 was 5.43. With `CCSc1nnc(Sc2c3ccccc3nc3ccccc23)s1`, the pEC50 is less than 3.70 and the pIC50 was 5.55.

As to `CC(C)C(NCc1c2ccccc2[n+]([O-])c2ccccc12)C(=O)O` (stereo not drawn), the result was inactive. Take `COC(=O)C12C3C4C1C1C2C3C41C(=O)OC(C)(C)C` (stereo not drawn): the pEC50 is less than 3.59 and the pIC50 is less than 3.59. Turning to `Cc1cccc2c1c(=O)c1c(O)cc(O)cc1n2C`, the pEC50 is less than 3.70 and the pIC50 was less than 3.70.

As to `[N-]=[N+]=Nc1cccc(-c2n[nH]c(Cl)cc2=O)c1`, the pEC50 is less than 3.70 and the pIC50 is less than 3.70. Consider `O=S(=O)(NC1CCC[C@H]1O)c1ccccc1` (stereo partly drawn), for which the outcome was inactive. With `N#C/C(=C\c1cccc(Cl)c1)C(=O)c1ccccc1`, the pEC50 was less than 3.95 and the pIC50 was 4.26. `CSC1=NNC(SC)=NN1`: the pEC50 was less than 3.70 and the pIC50 is 6.15. Take `Cc1[nH]nc2c1NC(=O)OC2C` (stereo not drawn): the pEC50 was less than 2.83 and the pIC50 is 2.92.

Consider `Cc1nc2c(nc1C)C(=O)C1=C(C2=O)C2C=CC1CC2`, for which the pEC50 is less than 4.15 and the negative logarithm of the IC50 (pIC50) was 5.79. The corresponding values for `CC#CCCC1CCCCN(C(=O)OC)C1OCC` (stereo not drawn) are less than 3.03 and 3.78.
